# According to US20240254087A1, “SELECTIVE, PARTIAL, AND ARRESTIN-BIASED 5-HT2A AGONISTS WITH UTILITY IN VARIOUS DISORDERS” (Saint Joseph's University, priority 2021, published 2024):
# Where a name gives a salt, the structure may show the parent alone.
# Legend:
# [1] = biological target: T1, 5-HT2A (Homo sapiens, UniProt P28223); assay: Competitive radioligand binding (NIMH PDSP)
# Procedure: (§1) Method 1: Competitive binding experiments were performed by the National Institute of Mental Health Psychoactive Drug Screening Program (NIMH PDSP) using described methods or 5-HT2A experiments performed using [3H]-ketanserin displacement in human 5-HT2A expressing membranes. Target compounds were dissolved in DMSO and an initial screen performed to assess displacement of the radioligand from target receptors at a concentration of 10,000 nM. […] For the Ki experiments, compounds were always tested in triplicate on separate plates. Each plate also contained a known ligand for the receptor as a positive control.
# [2] = biological target: 5-HT1e (Homo sapiens, UniProt P28566); assay: Competitive radioligand binding (NIMH PDSP)
# Chain of 5-HT1e (P28566 whole entry, species assumed): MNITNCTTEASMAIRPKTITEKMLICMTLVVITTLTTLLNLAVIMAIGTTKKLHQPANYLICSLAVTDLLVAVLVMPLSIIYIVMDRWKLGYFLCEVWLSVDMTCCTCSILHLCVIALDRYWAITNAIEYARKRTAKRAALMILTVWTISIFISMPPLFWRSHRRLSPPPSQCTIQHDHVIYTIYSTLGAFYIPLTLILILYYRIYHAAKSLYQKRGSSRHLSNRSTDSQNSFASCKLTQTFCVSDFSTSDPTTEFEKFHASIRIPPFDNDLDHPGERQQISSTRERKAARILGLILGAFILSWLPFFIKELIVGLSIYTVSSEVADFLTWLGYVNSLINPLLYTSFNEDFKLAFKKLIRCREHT
# Procedure: as §1
# [3] = biological target: T2, 5-HT1A (Homo sapiens, UniProt P08908); assay: Competitive radioligand binding (NIMH PDSP)
# T2 sequence (P08908 1-422): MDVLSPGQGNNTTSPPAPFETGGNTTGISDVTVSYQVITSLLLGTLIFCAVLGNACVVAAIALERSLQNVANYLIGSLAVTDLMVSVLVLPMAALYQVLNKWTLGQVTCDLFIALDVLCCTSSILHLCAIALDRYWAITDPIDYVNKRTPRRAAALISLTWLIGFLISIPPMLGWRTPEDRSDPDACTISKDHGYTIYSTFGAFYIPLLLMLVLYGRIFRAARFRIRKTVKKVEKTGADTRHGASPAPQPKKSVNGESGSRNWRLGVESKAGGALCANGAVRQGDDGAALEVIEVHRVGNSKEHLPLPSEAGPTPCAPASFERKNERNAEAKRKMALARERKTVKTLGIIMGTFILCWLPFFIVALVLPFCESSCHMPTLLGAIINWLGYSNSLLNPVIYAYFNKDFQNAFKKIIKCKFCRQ
# Procedure: as §1
# [4] = biological target: T3, 5-HT3 (Homo sapiens, UniProt P46098); assay: Competitive radioligand binding (NIMH PDSP)
# T3 sequence (P46098 24-478): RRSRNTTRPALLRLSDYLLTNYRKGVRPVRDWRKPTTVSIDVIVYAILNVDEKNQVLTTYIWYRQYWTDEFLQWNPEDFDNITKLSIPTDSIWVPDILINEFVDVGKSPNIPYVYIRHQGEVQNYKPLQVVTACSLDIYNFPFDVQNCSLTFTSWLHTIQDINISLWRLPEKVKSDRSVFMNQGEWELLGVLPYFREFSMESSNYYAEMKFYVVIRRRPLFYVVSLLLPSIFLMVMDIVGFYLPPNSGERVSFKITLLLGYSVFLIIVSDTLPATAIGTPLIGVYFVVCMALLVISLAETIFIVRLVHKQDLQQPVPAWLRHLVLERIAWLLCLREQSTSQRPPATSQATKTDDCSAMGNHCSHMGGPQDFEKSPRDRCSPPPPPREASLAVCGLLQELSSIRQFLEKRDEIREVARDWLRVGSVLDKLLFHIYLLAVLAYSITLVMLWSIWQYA
# Procedure: as §1
# [5] = biological target: 5-HT1B (Homo sapiens, UniProt P28222); assay: Competitive radioligand binding (NIMH PDSP)
# Chain of 5-HT1B (P28222 whole entry, species assumed): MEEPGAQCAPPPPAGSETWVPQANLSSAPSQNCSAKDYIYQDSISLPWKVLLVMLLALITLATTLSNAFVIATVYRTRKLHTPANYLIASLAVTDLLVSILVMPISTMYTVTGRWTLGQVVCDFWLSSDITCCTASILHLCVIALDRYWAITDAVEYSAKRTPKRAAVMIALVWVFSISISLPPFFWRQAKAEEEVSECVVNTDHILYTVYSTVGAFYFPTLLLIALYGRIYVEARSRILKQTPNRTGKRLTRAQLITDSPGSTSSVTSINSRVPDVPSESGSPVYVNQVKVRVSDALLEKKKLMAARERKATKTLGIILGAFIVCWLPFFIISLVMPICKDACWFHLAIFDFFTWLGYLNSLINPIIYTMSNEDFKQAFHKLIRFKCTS
# Procedure: as §1
# [6] = biological target: 5-HT1D (Homo sapiens, UniProt P28221); assay: Competitive radioligand binding (NIMH PDSP)
# Chain of 5-HT1D (P28221 whole entry, species assumed): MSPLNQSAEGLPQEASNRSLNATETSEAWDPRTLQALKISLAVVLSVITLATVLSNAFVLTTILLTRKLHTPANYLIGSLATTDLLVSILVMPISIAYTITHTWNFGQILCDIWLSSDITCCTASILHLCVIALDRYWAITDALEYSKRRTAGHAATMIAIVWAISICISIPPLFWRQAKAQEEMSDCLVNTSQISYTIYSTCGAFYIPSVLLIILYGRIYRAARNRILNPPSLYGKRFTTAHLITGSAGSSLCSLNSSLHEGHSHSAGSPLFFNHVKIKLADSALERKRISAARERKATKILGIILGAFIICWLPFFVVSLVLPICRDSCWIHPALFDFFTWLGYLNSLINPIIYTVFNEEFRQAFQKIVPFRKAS
# Procedure: as §1
# [7] = biological target: T4, 5-HT2B (Homo sapiens, UniProt P41595); assay: Ca2+ flux assay, 5-HT2B; assay type: cell-based; set-up: expressed in transfected cells; conditions: Ca2+ flux; for Emax: read-out: 5-HT2B Emax % 5-HT
# T4 sequence (P41595 whole entry): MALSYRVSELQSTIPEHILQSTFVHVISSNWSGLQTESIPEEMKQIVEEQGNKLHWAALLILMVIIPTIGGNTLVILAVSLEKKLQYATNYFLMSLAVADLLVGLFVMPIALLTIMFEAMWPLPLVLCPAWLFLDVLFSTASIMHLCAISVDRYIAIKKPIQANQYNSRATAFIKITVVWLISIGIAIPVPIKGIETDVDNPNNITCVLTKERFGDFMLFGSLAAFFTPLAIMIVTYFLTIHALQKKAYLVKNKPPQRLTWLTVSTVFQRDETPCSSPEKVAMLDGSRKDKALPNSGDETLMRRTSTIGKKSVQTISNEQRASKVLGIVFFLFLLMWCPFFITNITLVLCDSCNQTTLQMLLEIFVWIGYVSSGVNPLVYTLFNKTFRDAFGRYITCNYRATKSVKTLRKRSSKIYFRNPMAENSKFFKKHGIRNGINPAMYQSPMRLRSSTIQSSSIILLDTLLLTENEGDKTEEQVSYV
# Procedure: (§2) Cell lines were maintained in DMEM containing 10% FBS, 10 μg/mL Blasticidin (Invivogen), and 100 μg/mL Hygromycin B (GoldBio). At least 20-24 hours before the assay, receptor expression was induced with tetracycline ([…]) and cells were seeded into 384-well poly-L-lysine-coated black plates at a density of 7,500 cells/well in DMEM containing 1% dialyzed FBS. On the day of the assay, the cells were incubated for 1 h at 37° C. with Fluo-4 Direct dye (Invitrogen, 20 μl/well) reconstituted in drug buffer (20 mM HEPES-buffered HBSS, pH 7.4) containing 2.5 mM probenecid. Drug dilutions were prepared at 5X final concentration in McCorvy buffer (20 mM HEPES-buffered HBSS, 0).1% BSA, 0.01% ascorbic acid pH 7.4). After dye load, cells were allowed to equilibrate to room temperature for 15 minutes, and then placed in a FLIPR^TETRA fluorescence imaging plate reader (Molecular Devices). Fluorescence for the FLIPR^TETRA were programmed to read baseline fluorescence for 10 s (1 read/s), and afterward 5 μl of drug per well was added and read for a total of 5-10 min (1 read/s). Fluorescence in each well was normalized to the average of the first 10 reads for baseline fluorescence, and then either maximum-fold peak increase over basal or area under the curve (AUC) was calculated. […] Data was plotted and non-linear regression was performed using “log(agonist) vs. response” in Graphpad Prism 8 to yield Emax and EC50 parameter estimates.
# [8] = biological target: T5, 5-HT2C (Homo sapiens, UniProt P28335); assay: Ca2+ flux assay, 5-HT2C; assay type: cell-based; set-up: expressed in transfected cells; conditions: for Emax: read-out: 5-HT2C Emax % 5-HT
# T5 sequence (P28335 33-458): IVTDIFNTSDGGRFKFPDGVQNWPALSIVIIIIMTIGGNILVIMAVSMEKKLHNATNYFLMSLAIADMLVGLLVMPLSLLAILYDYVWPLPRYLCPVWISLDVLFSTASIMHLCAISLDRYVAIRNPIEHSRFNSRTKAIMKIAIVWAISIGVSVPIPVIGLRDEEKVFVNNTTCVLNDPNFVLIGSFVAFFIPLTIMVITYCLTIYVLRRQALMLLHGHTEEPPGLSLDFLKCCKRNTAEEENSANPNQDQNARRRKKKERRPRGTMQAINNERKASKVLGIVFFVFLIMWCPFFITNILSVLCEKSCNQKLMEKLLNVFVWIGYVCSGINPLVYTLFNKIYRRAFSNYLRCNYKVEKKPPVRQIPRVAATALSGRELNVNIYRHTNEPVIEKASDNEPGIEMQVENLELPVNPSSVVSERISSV
# Procedure: as §2
# [9] = system: 5-HT2A; assay: Ca2+ flux assay, 5-HT2A; assay type: cell-based, human; conditions: Gq/11 Ca2+ mobilization; higher number = skewed towards 5-HT2A
# Procedure: as §2
# [10] = biological target: T1, 5-HT2A; assay: Ca2+ flux assay, 5-HT2A; assay type: cell-based; set-up: expressed in transfected cells; conditions: for EC50: 5-HT2A EC50, nM, Ca2+ flux; for Emax: read-out: 5-HT2A Emax % 5-HT, Ca2+ flux
# Procedure: as §2
# [11] = biological target: T5, 5-HT2C; assay: Competitive radioligand binding (NIMH PDSP); set-up: expressed in transfected cells
# Procedure: as §1
# [12] = biological target: T4, 5-HT2B; assay: Competitive radioligand binding (NIMH PDSP); set-up: expressed in transfected cells
# Procedure: as §1
# [13] = biological target: T1, 5-HT2A; assay: [3H]-ketanserin displacement, 5-HT2A membranes; assay type: binding; set-up: ES-313-M400UA (membranes); host or cells: CHO-K1; conditions: [3H]-ketanserin displacement (n = 2); read-out: 5-HT2A pKi Mean ± SEM (converted)
# T1 sequence (P28223 whole entry): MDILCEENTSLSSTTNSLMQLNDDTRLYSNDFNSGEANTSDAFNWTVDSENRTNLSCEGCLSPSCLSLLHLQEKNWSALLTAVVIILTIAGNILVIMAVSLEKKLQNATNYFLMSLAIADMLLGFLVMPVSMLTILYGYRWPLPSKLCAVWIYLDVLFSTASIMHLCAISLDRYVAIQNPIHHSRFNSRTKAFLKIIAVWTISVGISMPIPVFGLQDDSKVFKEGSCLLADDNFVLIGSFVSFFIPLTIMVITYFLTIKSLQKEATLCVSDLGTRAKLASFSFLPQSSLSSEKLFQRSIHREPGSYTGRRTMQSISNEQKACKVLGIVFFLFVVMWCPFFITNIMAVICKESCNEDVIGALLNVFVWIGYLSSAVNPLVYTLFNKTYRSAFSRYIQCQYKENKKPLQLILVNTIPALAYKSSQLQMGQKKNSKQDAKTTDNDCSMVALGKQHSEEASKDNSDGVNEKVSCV
smiles,measurement,setting,value
"COc1cc([N+](=O)[O-])c(OC)cc1CCNCc1cccc(F)c1 [25N-NB-3-F (24), [2-(2,5-dimethoxy-4-nitrophenyl)ethyl][(3-fluorophenyl)methyl]amine]",Ki,[1],3.02 nM
same,Ki,[2],> 10000 nM
same,Ki,[3],> 10000 nM
same,Ki,[4],> 10000 nM
same,Ki,[5],> 10000 nM
same,Ki,[6],> 10000 nM
same,"5-HT2B EC50, nM",[7],No activity
same,Emax,[7],< 10%
same,EC50,"[8]; 5-HT2C EC50, nM",149 nM
same,Emax,[8],54 ± 1%
same,5-HT2A/5-HT2c Selectivity Factor ΔLog(Emax/EC50),[9],154.4
same,EC50,[10],2.25 nM
same,Emax,[10],85 ± 2%
same,Ki,[11],224 nM
same,Ki,[12],42.7 nM
"COc1cc([N+](=O)[O-])c(OC)cc1CCNCc1cccc2c1OC(F)(F)O2 [25N-NBMDF2 (13), [(2,2-difluoro-2H-1,3-benzodioxol-4-yl)methyl][2-(2,5-dimethoxy-4-nitrophenyl)ethyl]amine]",Ki,[1],1.2 nM
same,Ki,[2],> 10000 nM
same,Ki,[3],1000 nM
same,Ki,[4],> 10000 nM
same,Ki,[5],> 10000 nM
same,Ki,[6],> 10000 nM
same,"5-HT2B EC50, nM",[7],No activity
same,Emax,[7],< 10%
same,EC50,[8]; 5-HT2C (pEC50 ± SEM),437 nM
same,EC50,"[8]; 5-HT2C EC50, nM",431 nM
same,Emax,[8],49 ± 4%
same,5-HT2A/5-HT2c Selectivity Factor ΔLog(Emax/EC50),[9],252.5
same,EC50,[10],3.02 nM
same,Emax,[10],86 ± 2%
same,Ki,[11],214 nM
same,Ki,[12],46.8 nM
"COc1cc([N+](=O)[O-])c(OC)cc1CCNCc1ccc(F)cc1 [25N-NB-4-F (25), [2-(2,5-dimethoxy-4-nitrophenyl)ethyl][(4-fluorophenyl)methyl]amine]",Ki,[1],6.17 nM
same,Ki,[2],> 10000 nM
same,Ki,[3],> 10000 nM
same,Ki,[4],> 10000 nM
same,Ki,[5],> 10000 nM
same,Ki,[6],> 10000 nM
same,"5-HT2B EC50, nM",[7],No activity
same,Emax,[7],< 10%
same,EC50,"[8]; 5-HT2C EC50, nM",413 nM
same,Emax,[8],21 ± 2%
same,5-HT2A/5-HT2c Selectivity Factor ΔLog(Emax/EC50),[9],43.3
same,EC50,[10],19.7 nM
same,Emax,[10],48 ± 2%
same,Ki,[11],813 nM
same,Ki,[12],85.1 nM
"COc1cc([N+](=O)[O-])c(OC)cc1CCNCc1cccc(F)c1 (as salt: HCl) [25N-NB-3-F (24), [2-(2,5-dimethoxy-4-nitrophenyl)ethyl][(3-fluorophenyl)methyl]amine]",melting point,,216.2 to 217.5 °C
"COc1cc(CCNCc2cccc3ccccc23)cc(OC)c1Br (as salt: HCl) [(31), 2-(4-bromo-3,5-dimethoxyphenyl)-N-[(naphthalen-1-yl)-methyl]ethan-1-amine]",melting point,,232.8 to 234.3 °C
"COc1cc([N+](=O)[O-])c(OC)cc1CCNCc1cccc(C)c1 (as salt: HCl) [25N-NB-3-Me (22), [2-(2,5-dimethoxy-4-nitrophenyl)ethyl][(3-methylphenyl)methyl]amine]",melting point,,194.4 to 195.5 °C
"COc1cc([N+](=O)[O-])c(OC)cc1CCNCc1ccc(C)cc1 [25N-NB-4-Me (23), [2-(2,5-dimethoxy-4-nitrophenyl)ethyl] [(4-methylphenyl)methyl]amine]",Ki,[1],5.5 nM
same,Ki,[2],> 10000 nM
same,Ki,[3],2630 nM
same,Ki,[4],> 10000 nM
same,Ki,[5],> 10000 nM
same,Ki,[6],> 10000 nM
same,"5-HT2B EC50, nM",[7],No activity
same,Emax,[7],< 10%
same,EC50,"[8]; 5-HT2C EC50, nM",844 nM
same,Emax,[8],14 ± 1%
same,5-HT2A/5-HT2c Selectivity Factor ΔLog(Emax/EC50),[9],66.1
same,EC50,[10],38.3 nM
same,Emax,[10],42 ± 3%
same,Ki,[11],631 nM
same,Ki,[12],52.5 nM
"COc1cc([N+](=O)[O-])c(OC)cc1CCNCc1ccccc1-c1ccccc1 (as salt: HCl) [25N-NBPh (17), ({[1,1′-biphenyl]-2-yl}methyl)[2-(2,5-dimethoxy-4-nitrophenyl)ethyl]amine]",melting point,,181.5 to 182.5 °C
"COc1cc([N+](=O)[O-])c(OC)cc1CCNCc1cccc2ccccc12 (as salt: HCl) [25N-N-1-Nap (16), [2-(2,5-dimethoxy-4-nitrophenyl)ethyl][(naphthalen-1-yl)methyl]amine]",melting point,,191.8 to 192.3 °C
"COc1cc([N+](=O)[O-])c(OC)cc1CCNCc1ccccc1[N+](=O)[O-] (as salt: HCl) [25N-NBNO2 (15), [2-(2,5-dimethoxy-4-nitrophenyl)ethyl][(2-nitrophenyl)methyl]amine]",melting point,,200.5 to 201.7 °C
"COc1cc([N+](=O)[O-])c(OC)cc1CCNCc1ccccc1 (as salt: HCl) [25N-NB (2), Benzyl[2-(2,5-dimethoxy-4-nitrophenyl)ethyl]amine]",melting point,,220 to 221 °C
"COc1cc([N+](=O)[O-])c(OC)cc1CCNCc1ccccc1OC (as salt: HCl) [25N-NBOMe (4), [2-(2,5-dimethoxy-4-nitrophenyl)ethyl] [(2-methoxyphenyl)methyl]amine]",melting point,,166.4 to 167.8 °C
"COc1cc(OC)c(OC)cc1CCNCc1cccc(I)c1 (as salt: HCl) [(53), N-(3-iodobenzyl)-2-(2,4,5-trimethoxyphenyl)-ethan-1-amine]",melting point,,155.5 to 156.1 °C
"COc1cc([N+](=O)[O-])c(OC)cc1CCNCc1ccccc1C(F)(F)F (as salt: HCl) [25N-NBCF3 (14), [2-(2,5-dimethoxy-4-nitrophenyl)ethyl]({[2-(trifluoromethyl)phenyl]methyl}) amine]",melting point,,156.7 to 159.1 °C
"COc1cc(OC)c(OC)cc1CCNCc1cccc2ccsc12 [(73), N-(benzo[b]thiophen-7-ylmethyl)-2-(2,4,5-trimethoxyphenyl)-ethan-1-amine]",Ki,[13],29.5 nM
